Residue numbers refer to the chain shown, from its start.
Legend:
CMPK2^Lys265 protein = target: T1, CMPK2^Lys265 protein (Homo sapiens, UniProt Q5EBM0, K265A); test: MST binding to CMPK2 Lys265 mutant; conditions: Lys265 mutated
T1 construct: the N‐terminus was truncated by 22 amino acids; 6xHis (C); made in house; host or cells: FreeStyle 293-F cells (pTT5 vector)
T1 sequence (Q5EBM0 22-449 K265A): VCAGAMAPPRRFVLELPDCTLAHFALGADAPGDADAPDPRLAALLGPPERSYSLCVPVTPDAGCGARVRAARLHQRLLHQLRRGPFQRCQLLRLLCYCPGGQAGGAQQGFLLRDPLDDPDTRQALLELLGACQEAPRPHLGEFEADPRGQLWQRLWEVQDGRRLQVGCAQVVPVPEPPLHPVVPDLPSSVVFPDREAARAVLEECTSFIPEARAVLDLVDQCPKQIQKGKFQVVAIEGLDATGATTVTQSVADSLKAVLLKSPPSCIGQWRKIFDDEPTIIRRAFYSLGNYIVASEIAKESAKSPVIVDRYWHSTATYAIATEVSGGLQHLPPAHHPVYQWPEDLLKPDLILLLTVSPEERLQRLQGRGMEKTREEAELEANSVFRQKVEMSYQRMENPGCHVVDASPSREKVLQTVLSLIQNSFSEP
Procedure: Human CMPK2 and K265, K282 and K320 mutated CMPK2 cDNA were cloned and inserted into the pTT5 vector, and the constructed plasmid was amplified by the DH5α strain. The C‐terminus of the cDNA was fused with a 6× His tag, and the N‐terminus was truncated by 22 amino acids (Figure 1B–F and Supporting Information Figure S5A,B). When the free‐style 293‐F cells reached the proper density, approximately 1 mg of expression plasmid was premixed with 3 mg polyethylenimine in UltraFectin medium and incubated prior to transfection. This mixture was then added to the appropriate amount of fresh cell culture medium, incubated for 30 min and collected after 48 h.
The MST assay is an emerging technique used to quantitatively elucidate binding. The binding parameter between CMPK2 and DP was measured using MST on a Monolith NT.115 system (Germany). CMPK2 was fluorescently labeled with the Monolith NT Protein Labeling Kit RED (L018, NanoTemper Technologies GmbH, Munich, Germany) according to the manufacturer’s instructions. The Monolith NT.115 system was used with Monolith NT.115 standard capillaries (M0-K022). MST assay buffer was used to dilute the labeled CMPK2 to 2 μM. […] The binding and dissociation constants (Kd) were evaluated and calculated using M0-Affinity analysis software version 2.1.3 (Nano Temper Technologies) for the ligand.

[1] = tested on: ASC oligomerization in BMDMs; test: ASC oligomerization assay; type: cell-based, mouse; conditions: DP 12 h before or 1 h after LPS; ATP/Nigericin
Procedure: BMDMs were seeded at 1×10^6 cells/ml in 6-well plates. After cell adherence, BMDMs were treated with different concentrations of DP. The following day, the medium was replaced, and the cells were primed with 200 ng/ml LPS for 4 h and then stimulated with Nigericin or ATP for 45 min. BMDMs were primed with 200 ng/ml LPS for 4 h. The cells were treated with DP for 1 h and then stimulated with Nigericin or ATP for 45 min. The supernatant was removed, the cells were rinsed in ice-cold PBS, and then, the cells were lysed with NP-40 for 30 min. Lysates were centrifuged at 6000×g for 10 min at 4°C. The pellets were washed twice in 200 μl of ice-cold PBS and resuspended in 200 μl of PBS. Then, 2 mM disuccinimidyl suberate (DSS) was added to the resuspended pellets, which were incubated at room temperature for 30 min with rotation. Samples were then centrifuged at 6000×g for 10 min at 4°C. The cross-linked pellets were resuspended in 40 μl of 2× loading buffer and then boiled and analyzed by immunoblotting.

CMPK2 = target: T2, CMPK2 (Homo sapiens, UniProt Q5EBM0); test: CMPK2 kinase activity assay (ADP-GLO); type: biochemical
T2 sequence (Q5EBM0 22-449): T1 sequence (Q5EBM0 22-449 K265A) with A244K
Procedure: The range of concentrations used to investigate the effect of small‐molecule ligands on CMPK2 activity was 0.1–150 μM. Each data point contains three biological replicates.
CMPK2 activity was measured by the ADP‐GLO kinase assay according to the guidelines specified in the manufacturer's instructions. In the activity assay, the amount of ADP formed in the CMPK2 reaction was equal to the ATP consumption and proportional to the increase in luminescence generated in the luciferase reaction, which is the experimental principle shown in Figure 1I.

[2] = tested on: siCmpk2/dsCmpk2-transduced BMDMs; test: Inflammasome readouts in siCmpk2- or dsCmpk2-transduced BMDMs; type: cell-based, mouse
Procedure: BMDMs were plated in 6-well plates at a density of 1.5×10^6 cells per well and then transfected with 150 nM siRNA using Lipofectamine RNAiMAX according to the manufacturer’s guidelines (Invitrogen). siRNA sequences were chemically synthesized by GenePharma, and the negative control siRNA was also from GenePharma. The siRNA sequences were as follows: sicmpk2 5’-[…]-3’.
Full-length human CMPK2 was cloned and inserted into a pcDNA3.1(+) vector (Invitrogen) for expression in mouse BMDMs. An HA tag was placed after the C-terminal of CMPK2. Mouse BMDMs were transfected using Fugene HD Transfection Reagent (Promega) with the CMPK2 plasmid. BMDMs were plated in 6-well plates at a density of 1.5×10^6 cells per well and then transfected with 6 μg dsDNA using FuGENE according to the manufacturer’s guidelines (Promega).

BMDMs = test: Mitochondrial membrane potential (JC-1) and mtROS (MitoSOX); type: cell-based, mouse; conditions: DP 12 h, LPS priming, ATP
Procedure: The treated bone marrow‐derived macrophages (BMDMs) and JC‐1 working solution were incubated in a cell incubator for 30 min. At the end of the warm incubation, the cells were washed three times with PBS, and images were captured with a Harmony 4.8 (PerkinElmer). Meanwhile, the stained BMDMs were quantified by flow cytometry.
For mitochondrial ROS (mtROS) measurement, according to the instruction guidelines, a diluted 5 μM MitoSOX working solution was incubated with treated BMDMs in a cell incubator for 10 min according to the instructional guidelines. The BMDMs were gently washed with warm buffer to remove the working solution. The images were captured using Harmony 4.8 (PerkinElmer). Meanwhile, the stained BMDMs were quantified by flow cytometry.

In the case of `COc1c2ccc(-c3ccccc3)oc-2cc(=O)c1C` [compound 73, Dracohodin perochlorate], the “binding (Kd by MST)” value (CMPK2^Lys265 protein) is reported as “no binding”, the ASC oligomerization [1] is reported as “blocked” and the CMPK2 activity (CMPK2; 1 mM DP) is reported as “completely inhibited”. For the same molecule, the IC50 (CMPK2; kinase activity assay, experimental triplicates, read-out: IC50 with respect to CMPK2) was 1.34 µM, the inhibition at 10 µM (CMPK2; read-out: CMPK2 inhibition) was over 50% and the “effect on TNF-α in supernatant” value ([2]; CMPK2-overexpressing BMDMs) was “negligible”. The “inhibitory effect on IL-1β” value ([2]; CMPK2-overexpressing BMDMs) was “reversed”, the “release of TNF-α in supernatant” value ([2]; WT/siCmpk2 BMDMs, DP 12 or 1 h, ATP/Nigericin) was “no significant change” and the ASC oligomerization ([2]; siCmpk2-transduced BMDMs, different concentrations of DP) was “not significantly altered”. The mitochondrial membrane potential (BMDMs) was “significantly reversed” and the mtROS production (BMDMs) was “inhibited”.

Reference: publication PMC10587737, “Dracorhodin targeting CMPK2 attenuates inflammation: A novel approach to sepsis therapy” (Clinical and Translational Medicine, 2023)
